Measured values taken from patent publication US7459284B2, “Chemiluminescent acridinium compounds and analogues thereof as substrates of hydrolytic enzymes” (Siemens Healthcare Diagnostics Inc., priority 1999, dated 2008).

What was measured:
[1] = Light emission spectra by Fast Spectral Scanning System (FSSS); assay type: physicochemical
Description: The light emission spectra of compounds 1˜12 and 15˜18 were determined by a Fast Spectral Scanning System (FSSS) of Photo Research (a division of Kollmorgen Corp.) of Burbank, Calif., U.S.A. The experiment was carried out in a dark room. Each compound was dissolved in acetonitrile or N,N-dimethylformamide. The resulting concentrate was diluted with the same solvent to form the working solution, which upon flashing gave a light emission with an adequate intensity. A typical experiment utilized 10˜100 μg or more of the sample in 500 μl of the solvent contained in a 13×100 mm borosilicate test tube. The tube was placed on a test tube rack raised to a proper height. A piece of aluminum foil was placed on the back of the tube to enhance the detectability of the emitted light. The FSSS optical head was placed in front of the tube at an approximate distance of about 130 mm with its lens focused on the liquid in the tube. The sample solution was first treated with 0.35 ml of the Flashing Reagent #1 (Bayer Diagnostics) containing 0.1 N HNO3 and 0.5% H2O2. The room was then darkened, and 0.35 ml of the Flashing Reagent #2 (Bayer Diagnostics) containing 0.25 N NaOH and 0.5% ARQUAD was added to the reaction mixture immediately. (See U.S. Pat. No. 4,927,769, which is commonly assigned and incorporated herein by reference.) The light which was generated instantaneously following the addition of the Reagent #2 was recorded by FSSS for 5 seconds starting from about one second before the Reagent #2 was added.

[2] = target: T1, alkaline phosphatase (Bos taurus, UniProt P19111); test: Alkaline phosphatase assay using 4′-Phos-AE (17) as chemiluminescent substrate; assay type: biochemical; details: 0.1 mM substrate, pH 9 Tris, 3-4 hours room temperature; 0.1 ml reaction volume; measuring time 0.3 s
Description: Treatment of a solution of 4′-Phos-AE (17, 0.1 mM,) in 100 mM Tris pH 9, 1 mM MgCl2 with varying concentrations of alkaline phosphatase was carried out. The reactions were incubated for 3-4 hours at room temperature and were then sequentially diluted 10^4-fold into ‘flash buffer’ which contains 10 mM phosphate pH 8 with 150 mM NaCl, 0.1% BSA and 0.05% sodium azide. Chemiluminescence of a 25 μL solution was measured on a Bayer Diagnostics' Magic Lite Ananlyzer (MAL1) equipped with a BG38 filter. A measuring time of 0.3 s was employed. Evaluation of the chemiluminescent activity of the reactions indicated a steady decrease in total chemiluminesence with increasing concentrations of enzyme. Thus, as the concentration of enzyme is increased, a greater proportion of the fast-emitting substrate 4′-Phos-AE is converted to the slow-emitting product 4′-OH-AE (18) leading to an overall decrease in light output (at a short measuring time). Alkaline phosphatase was easily detected at 5×10^−17 moles (0.1 ml reaction volume) in this assay.

[3] = Light emission kinetics of substrate vs product; assay type: physicochemical; details: short measuring times (0.5-0.3 s)
Excerpt: One of the more preferred chemiluminescent acridinium substrates of Formula XIII is compound 4′-Phos-AE (17).

[4] = target: T1, alkaline phosphatase; test: Enzymatic conversion of substrate by alkaline phosphatase (HPLC analysis); assay type: biochemical; details: alkaline aqueous medium; about 1 hour
Description: A 1 mM DMF solution of the acridinium 3-enol-phosphate (13) was mixed with 150 μL of 100 mM Tris pH 9 also containing 1 mM MgCl2. Alkaline phosphatase (5 μl of a 2 mg/ml solution) was added and the reaction was incubated at room temperature for ˜1 hour. […] The product was isolated by semi-preparative HPLC using a 7.8×300 mm, C18 column. MALDI-TOF MS of the product indicated this was indeed the keto product (14): m/z 521.36 obs. (520.56 calc.).
A 20 μL DMF solution of the acridan (15) (1.7 mM) was combined with 180 μl of 0.15 M 2-amino-2-methyl-1-propanol pH 10.3 also containing 1 mM magnesium acetate. A clear blue solution was obtained (0.17 mM substrate), which was then treated with alkaline phosphatase (10^−10 moles). The blue color was discharged instantly. […] The reaction mixture was then evaluated by the FSSS to determine the light emission spectrum of the product, which is shown in FIG. 2N. The product was isolated by semi-preparative HPLC. […] (521.56 calc.).

T1 sequence (P19111 20-506): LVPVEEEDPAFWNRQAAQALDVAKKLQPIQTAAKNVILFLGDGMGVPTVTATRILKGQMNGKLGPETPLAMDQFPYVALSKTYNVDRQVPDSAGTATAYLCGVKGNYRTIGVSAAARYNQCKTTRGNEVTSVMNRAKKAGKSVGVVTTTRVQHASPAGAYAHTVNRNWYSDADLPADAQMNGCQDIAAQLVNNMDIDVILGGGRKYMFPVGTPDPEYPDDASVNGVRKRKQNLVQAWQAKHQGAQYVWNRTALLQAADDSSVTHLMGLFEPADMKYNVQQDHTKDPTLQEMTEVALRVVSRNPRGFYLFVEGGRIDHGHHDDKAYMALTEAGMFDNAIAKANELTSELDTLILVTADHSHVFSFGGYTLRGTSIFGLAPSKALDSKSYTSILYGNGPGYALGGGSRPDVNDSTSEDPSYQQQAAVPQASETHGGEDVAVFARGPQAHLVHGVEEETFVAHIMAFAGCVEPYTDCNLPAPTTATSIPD

For C[n+]1c2ccccc2c(C(=O)Oc2ccc(OP(=O)(O)O)cc2)c2ccccc21 [Compound 17, 4′-phosphophenyl 10-methyl acridinium-9-carboxylate trifluoromethanesulfonate], the “Emission Maximum” value ([1]; FSSS, hydrogen peroxide in strong alkaline solution) was 436 nm, the “Emission Range” value ([1]; spectral region with signal intensity above 5% of peak height, FSSS scanning limit 380-780 nm, flashed with 0.1 N HNO3/0.5% H2O2 then 0.25 N NaOH/0.5% ARQUAD) was 410-540 nm and the “level of alkaline phosphatase detected” value [2] was 5e-17 mol. For the same compound, the “speed of light emission relative to product 18” value [3] was ~190 times and the “conversion by alkaline phosphatase” value [4] was “readily converted”.
